# Laboratory results from ChEMBL document CHEMBL4602643, “Anti-inflammatory activities of isopimara-8(14),-15-diene diterpenoids and mode of action of kaempulchraols P and Q from Kaempferia pulchra rhizomes” (Bioorg Med Chem Lett, 2020).
# Calls of active or inactive are those of the source. The rule behind the calls is not given here.
# Key:
# [1] = Cytotoxicity against mouse RAW264.7 cells assessed as cell survival at 50 uM; format: cell-based; conditions: read-out: Activity
# [2] = Cytotoxicity against mouse RAW264.7 cells assessed as cell survival at 5 uM; format: cell-based; conditions: read-out: Activity
# RAW264.7 [3] = test: Anti-inflammatory activity in mouse RAW264.7 cells assessed as inhibition of LPS-induced NO production at 10 uM relative to control; format: functional
# RAW264.7 [4] = test: Anti-inflammatory activity in mouse RAW264.7 cells assessed as inhibition of LPS-induced NO production; format: functional, cell-based
# RAW264.7 [5] = test: Anti-inflammatory activity in mouse RAW264.7 cells assessed as inhibition of LPS-induced NO production at 100 uM relative to control; format: functional
# [6] = Cytotoxicity against mouse RAW264.7 cells assessed as cell survival at 10 uM; format: cell-based; conditions: read-out: Activity
# RAW264.7 [7] = test: Anti-inflammatory activity in mouse RAW264.7 cells assessed as inhibition of LPS-induced NO production at 50 uM relative to control; format: functional
# [8] = Cytotoxicity against mouse RAW264.7 cells assessed as cell survival at 100 uM; format: cell-based; conditions: read-out: Activity
# RAW264.7 [9] = test: Anti-inflammatory activity in mouse RAW264.7 cells assessed as inhibition of LPS-induced NO production at 5 uM relative to control; format: functional
# RAW264.7 [10] = test: Inhibition of LPS-induced NF-kappaB activation in mouse RAW264.7 cells expressing luciferase gene at 5 to 25 uM by luciferase reporter gene assay; format: cell-based
# RAW264.7 [11] = test: Inhibition of LPS-induced IL-6 production in mouse RAW264.7 cells at 25 uM by ELISA; format: functional, cell-based
# RAW264.7 [12] = test: Inhibition of NF-kappaB activation in mouse RAW264.7 cells expressing luciferase gene at 5 to 25 uM by luciferase reporter gene assay; format: cell-based
# RAW264.7 [13] = test: Antiinflammatory activity in mouse RAW264.7 cells assessed as inhibition of LPS-induced COX2 expression at 25 uM incubated for 24 hrs by Western blot analysis; format: functional, cell-based
# RAW264.7 [14] = test: Cytotoxicity against mouse RAW264.7 cells expressing luciferase reporter gene assessed as cell survival at 5 to 25 uM; format: cell-based; conditions: raw264.7, 25 µM
# J774.1 = test: Anti-inflammatory activity in mouse J774.1 cells assessed as inhibition of LPS-induced NO production preincubated for 2 hrs before LPS stimulation and measured after 24 hrs by Griess method; format: functional, cell-based
# RAW264.7 [15] = test: Cytotoxicity against mouse RAW264.7 cells assessed as reduction in cell viability; format: cell-based
SMILES,IC50 (RAW264.7 [4]) [µM],IC50 (J774.1) [µM],viability at 50 µM [1] [%],viability at 5 µM [2] [%],inhibition at 10 µM (RAW264.7 [3]) [%],inhibition at 100 µM (RAW264.7 [5]) [%],viability at 10 µM [6] [%],inhibition at 50 µM (RAW264.7 [7]) [%],viability at 100 µM [8] [%],inhibition at 5 µM (RAW264.7 [9]) [%],inhibition (RAW264.7 [10]),inhibition (RAW264.7 [11]),inhibition (RAW264.7 [12]),inhibition (RAW264.7 [13]),Activity (RAW264.7 [14]),IC50 (RAW264.7 [15]) [µM]
C=C[C@@]1(C)C[C@@H](OC(=O)c2ccccc2)[C@@H]2[C@@]3(C)C=C(O)C(=O)C(C)(C)[C@@H]3C[C@@H](OC(C)=O)[C@@]2(O)C1=O,,14.4,,,,,,,,,,,,,,
C=C[C@]1(C)C=C2[C@@H](O)C[C@H]3C(C)(C)CCC[C@]3(C)[C@@]2(O)CC1,> 100,,73.3,114,14.8,-5.96,98.8,5.89,71.3,18.4,,,,,,
C=C[C@]1(C)C[C@@H](OC(=O)c2ccccc2)[C@H]2[C@](O)(C1=O)[C@H](OC(C)=O)C[C@H]1C(C)(C)[C@H](OC(C)=O)[C@H](O)[C@H](OC(=O)c3ccccc3)[C@@]12C,,20.5,,,,,,,,,,,,,,
C=C[C@]1(C)C=C2CC[C@H]3C(C)(C)C[C@H](O)[C@H](O)[C@]3(C)[C@@]2(O)CC1,> 100,,27.5,85.7,7.8,20.8,85.3,21,27.6,18.1,,,,,,
C=C[C@]1(C)C=C2CC[C@H]3C(C)(C)C[C@H](O)[C@H](O)[C@]3(C)[C@H]2[C@H](O)C1,> 100,,60.9,65.7,11.1,22.4,50.9,37.1,66.5,17.2,,,,,,
C=C[C@]1(C)C=C2C(=O)C[C@H]3C(C)(C)CCC[C@]3(C)[C@@]2(O)CC1,> 100,,50.7,93.3,32.5,41.6,83.3,40.1,45.8,33.3,,,,,,
C=C[C@]1(C)C=C2[C@@H](OC(C)=O)[C@@H](O)[C@H]3C(C)(C)CCC[C@]3(C)[C@@]2(O)CC1,> 100,,85.7,89.3,16.7,47.5,84.7,24.9,70.3,21.4,,,,,,> 50
C=C[C@]1(C)C=C2CC[C@H]3C(C)(C)[C@H](O)C[C@H](O)[C@]3(C)[C@H]2CC1,> 100,,50,104,13.3,33.8,85.1,33.4,47.7,5.57,,,,,,
C=C[C@]1(C)C[C@@H](OC(=O)c2ccccc2)[C@H]2[C@](O)(C1=O)[C@H](OC(C)=O)C[C@H]1C(C)(C)[C@H](O)[C@H](OC(C)=O)[C@H](OC(=O)c3ccccc3)[C@@]12C,,11.5,,,,,,,,,,,,,,
C=C[C@]1(C)C=C2C[C@@H](O)[C@H]3C(C)(C)CC[C@H](O)[C@]3(C)[C@H]2CC1,> 100,,52.2,72.9,17.7,26.3,65.7,35.2,67,17.4,,,,,,

# The next lines start with results.
IC50 (RAW264.7 [4]) [µM],IC50 (J774.1) [µM],SMILES,viability at 50 µM [1] [%],viability at 5 µM [2] [%],inhibition at 10 µM (RAW264.7 [3]) [%],inhibition at 100 µM (RAW264.7 [5]) [%],viability at 10 µM [6] [%],inhibition at 50 µM (RAW264.7 [7]) [%],viability at 100 µM [8] [%],inhibition at 5 µM (RAW264.7 [9]) [%],inhibition (RAW264.7 [10]),inhibition (RAW264.7 [11]),inhibition (RAW264.7 [12]),inhibition (RAW264.7 [13]),Activity (RAW264.7 [14]),IC50 (RAW264.7 [15]) [µM]
56.2,,C=C[C@]1(C)C=C2C[C@@H](O)[C@H]3C(C)(C)CCC[C@]3(C)[C@@]2(OC)CC1,110,121,10.8,74.2,104,46.6,37.6,4.09,,,,,,
65.5,,CNC(=N)NCCC[C@H](N)C(=O)O [TILARGININE ACETATE],107,112,27,58.2,92.6,46.3,103,22.8,,,,,,
36.1,,C=C[C@]1(C)C=C2C[C@@H](O)[C@H]3C(C)(C)CC[C@H](OC(C)=O)[C@]3(C)[C@H]2CC1,60.3,106,9.55,81.8,111,71.6,3.39,15.2,Active,Active,Active,Active,Non-Toxic,
> 100,,C=C[C@]1(C)C=C2C[C@@H](OC(C)=O)[C@H]3C(C)(C)CCC[C@]3(C)[C@@]2(O)CC1,68.8,76.9,9.03,-3.85,82,7.9,76,17.7,,,,,,
> 100,,C=C[C@]1(C)C=C2C[C@@H](O)[C@H]3C(C)(C)[C@H](O)C[C@H](O)[C@]3(C)[C@H]2CC1,89.4,104,15.2,24.1,113,34.3,101,9.01,,,,,,
> 100,,C=C[C@]1(C)C=C2C(=O)C[C@H]3C(C)(C)CC[C@H](O)[C@]3(C)[C@H]2CC1,86.8,86.6,7.8,35.5,92.4,25.1,77.8,16.5,,,,,,
41.5,,C=C[C@]1(C)C=C2[C@H](OC(C)=O)C[C@H]3C(C)(C)CCC[C@]3(C)[C@@]2(O)CC1,88.7,71.5,14.9,80.5,98.3,59.5,4.72,20.7,,,,,,
48.4,,C=C[C@]1(C)C=C2[C@@H](O)[C@@H](O)[C@H]3C(C)(C)CCC[C@]3(C)[C@@]2(O)CC1,60.2,140,16.9,60.4,81.2,51.4,22.1,5.03,,,,,,> 50
100,,C=C[C@]1(C)C=C2CC[C@H]3C(C)(C)C[C@H](O)[C@H](O)[C@]3(C)[C@H]2CC1,70.6,113,9.37,49.2,70.4,37.1,73.5,4.21,,,,,,
48.7,,C=C[C@@]1(C)C=C2CC[C@@H]3C(C)(C)C[C@@H](O)C[C@@]3(C)[C@@H]2CC1,114,97.5,7.09,81.8,115,50.8,4.35,3.43,,,,,,
32.8,,C=C[C@]1(C)C=C2[C@H](OC(C)=O)[C@@H](O)[C@H]3C(C)(C)CCC[C@]3(C)[C@H]2CC1,6.17,100,9.88,82.1,107,80.3,3.73,-0.32,,,,,,32.6
95.3,,C=C[C@]1(C)C=C2CC[C@H]3C(C)(C)CC[C@H](O)[C@]3(C)[C@H]2[C@H](O)C1,35.9,78.4,6.28,50.4,86.7,46.6,27.8,13.4,,,,,,
53.8,,C=C[C@]1(C)C=C2CC[C@H]3C(C)(C)CC[C@H](O)[C@]3(C)[C@H]2CC1,67.6,57.7,14,80.5,77.4,47.5,3.78,27.2,,,,,,
41.7,,C=C[C@]1(C)C=C2[C@H](O)C[C@H]3C(C)(C)CCC[C@]3(C)[C@H]2CC1,58.8,76.9,14.4,67.6,65.8,59.3,34.2,17.4,,,,,,
